Measurements taken from ChEMBL document CHEMBL1201862, “PubChem BioAssay data set” (2004).
Calls of active or inactive are those of the source.

Tests used:
[1] = cytotoxicity toward DRD oncogenic fibroblasts, dose response, cell-based, non-viral oncogenic, luminescence (AID 1934); format: functional; details: Homo sapiens
[2] = inhibitors of SNCA 5'UTR-driven reporter translation, confirmation, H4 neuroglioma cells, luminescence (AID 1988); format: functional, cell-based
[3] = luciferase reporter signal reduction – luminescence, H4-C neuroglioblastoma cells, dose response (AID 2458); format: functional, cell-based;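 further: H4 neuroglioblastoma cells stably carrying a luciferase reporter gene fusion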
[4] = inhibitors of SNCA 5'UTR-driven translation, confirmation, luminescence, H4 neuroglioblastoma cells, dose confirmation (AID 2454); format: functional, cell-based;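 further: H4 neuroglioblastoma cells carrying an alpha-synuclein 5'UTR luciferase reporter; potency for inhibition of the luciferase signal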
BJ [5] = test: cytotoxicity toward BJ-TERT fibroblasts, dose response, cell-based, RAS-independent, luminescence (AID 1933); format: functional; details: Homo sapiens
[6] = inhibitors of firefly luciferase expression or activity, dose response, H4 neuroglioma cells, luminescence (AID 1990); format: functional, cell-based
BJ [7] = test: cytotoxicity toward BJ-TERT-LT-ST fibroblasts, dose response, cell-based, RAS-independent, luminescence (AID 1935); format: functional; details: Homo sapiens;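 further: BJ fibroblasts immortalized with TERT plus LT and ST oncogenes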
BJ [8] = test: cells; format: functional, cell-based; details: Homo sapiens
cells [9] = format: functional, cell-based
[10] = cytotoxicity in HEK-293T cells, dose response, cytotoxicity control for BCR NF-kB inhibitor project, luminescence, B-cell screen hits (AID 489021); format: functional, cell-based;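 further: HEK-293T cells carrying an NF-kB luciferase reporter; cells exposed to compound for about 14 hours before viability readout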
[11] = M. tuberculosis H37Rv growth inhibitors, H37Rv strain (AID 1626); format: functional
Bcl-2-like protein 10 = biological target: T1, Bcl-2-like protein 10 (Homo sapiens, UniProt Q9HD36); test: displacers of TR3 peptide from Bcl-B, primary screen, selectivity assay for Bfl-1 inhibitor project, biochemical, fluorescence polarization, FITC-TR3 peptide (AID 748);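 further: fluorescence polarization from a fluorescein-labelled TR3 peptide binding purified Bcl-B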
T1 sequence (Q9HD36 whole entry): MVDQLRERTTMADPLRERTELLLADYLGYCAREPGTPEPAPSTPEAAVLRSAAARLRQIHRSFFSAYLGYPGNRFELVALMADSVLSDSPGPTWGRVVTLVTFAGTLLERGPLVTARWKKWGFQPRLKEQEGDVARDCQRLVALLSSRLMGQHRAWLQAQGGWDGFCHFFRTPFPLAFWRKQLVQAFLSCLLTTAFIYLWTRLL

Nonstructural protein 1 = Nonstructural protein 1 (Influenza A virus, UniProt Q194T2); format: functional, Influenza A virus (A/California/07/2009(H1N1))
[12] = biological target: Induced myeloid leukemia cell differentiation protein Mcl-1 (Homo sapiens, UniProt Q07820); format: functional
Sequence of Induced myeloid leukemia cell differentiation protein Mcl-1 (Q07820 whole entry): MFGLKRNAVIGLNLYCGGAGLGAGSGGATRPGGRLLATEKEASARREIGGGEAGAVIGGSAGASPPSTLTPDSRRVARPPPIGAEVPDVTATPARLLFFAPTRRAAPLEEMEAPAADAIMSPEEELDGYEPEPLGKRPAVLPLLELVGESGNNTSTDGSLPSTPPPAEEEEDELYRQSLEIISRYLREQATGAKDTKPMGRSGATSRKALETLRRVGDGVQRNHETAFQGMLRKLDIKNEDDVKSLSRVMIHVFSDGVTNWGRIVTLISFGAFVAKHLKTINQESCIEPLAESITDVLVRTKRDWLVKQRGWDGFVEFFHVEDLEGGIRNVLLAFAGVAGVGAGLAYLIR

Troponin, cardiac muscle = Troponin, cardiac muscle (Homo sapiens, UniProt P19429+P45379+P63316); test: Fluorescence-based biochemical high throughput dose response assay for activators of the calcium sensitivity of cardiac Regulated Thin Filaments (RTF). [Related pubchem assays (depositor defined):AID493008, AID493018, AID504382, AID504383]; format: protein-complex assay
[13] = biological target: Luciferin 4-monooxygenase (Photinus pyralis, UniProt P08659); test: Counter Screen for Luciferase-based Assay Positives. [Related pubchem assays: 620, 618, 411 ]
Sequence of Luciferin 4-monooxygenase (P08659 whole entry): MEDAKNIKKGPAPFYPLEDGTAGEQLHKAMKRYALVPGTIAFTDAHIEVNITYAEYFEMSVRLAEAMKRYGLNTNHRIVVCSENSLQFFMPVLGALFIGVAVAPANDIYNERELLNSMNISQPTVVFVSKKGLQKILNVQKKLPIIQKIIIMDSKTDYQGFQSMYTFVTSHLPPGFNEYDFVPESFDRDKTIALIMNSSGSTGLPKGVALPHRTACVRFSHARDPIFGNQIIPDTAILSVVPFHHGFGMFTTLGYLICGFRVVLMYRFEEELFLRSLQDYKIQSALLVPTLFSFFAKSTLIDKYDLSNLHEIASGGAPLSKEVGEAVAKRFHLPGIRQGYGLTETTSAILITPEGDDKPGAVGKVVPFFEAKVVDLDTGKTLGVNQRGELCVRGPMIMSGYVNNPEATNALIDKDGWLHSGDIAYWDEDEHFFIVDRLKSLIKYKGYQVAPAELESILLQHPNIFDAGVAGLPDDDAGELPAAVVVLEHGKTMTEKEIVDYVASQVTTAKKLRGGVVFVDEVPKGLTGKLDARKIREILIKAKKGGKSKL

HT-1080 = test: cytotoxicity in HT1080 fibrosarcoma cells, cell-based, fluorescence readout (AID 620); format: functional; details: Homo sapiens
[14] = biological target: T2, RNA-binding protein pos-1 (Caenorhabditis elegans, UniProt G5EF15); test: inhibitors of POS-1/mex-3 RNA binding, dose response, biochemical, fluorescence polarization (AID 1964);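 further: purified POS-1 fused to maltose binding protein made in E. coli; potency of compounds blocking POS-1 binding to fluorescent RNA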
T2 sequence (G5EF15 whole entry): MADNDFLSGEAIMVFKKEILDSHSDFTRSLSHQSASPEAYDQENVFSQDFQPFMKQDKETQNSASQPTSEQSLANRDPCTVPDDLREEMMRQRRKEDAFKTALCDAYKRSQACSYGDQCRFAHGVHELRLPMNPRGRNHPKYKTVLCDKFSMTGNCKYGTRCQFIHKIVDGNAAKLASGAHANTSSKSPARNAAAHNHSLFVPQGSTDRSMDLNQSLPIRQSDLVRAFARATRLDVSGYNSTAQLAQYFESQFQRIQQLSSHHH

[15] = biological target: G-protein coupled receptor 35 (Homo sapiens, UniProt Q9HC97); test: GPR35 antagonists blocking zaprinast-driven arrestin recruitment, primary screen, imaging, U2OS, beta-arrestin-GFP, zaprinast agonist (AID 2058); format: functional;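 further: antagonist potency meaning inhibition of agonist-induced arrestin redistribution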
Beta-lactamase [16] = biological target: Beta-lactamase (Pseudomonas aeruginosa, UniProt Q79MP6);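 further: biochemical dose-response test of metallo-beta-lactamase enzyme inhibition, read out by epi-absorbance; purified recombinant IMP-1 metallo-beta-lactamase with nitrocefin as substrate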
Beta-lactamase [17] = biological target: Beta-lactamase (Salmonella choleraesuis (strain SC-B67), UniProt Q5J463)
Sequence of Beta-lactamase (Salmonella choleraesuis (strain SC-B67), UniProt Q5J463) (Q5J463 whole entry): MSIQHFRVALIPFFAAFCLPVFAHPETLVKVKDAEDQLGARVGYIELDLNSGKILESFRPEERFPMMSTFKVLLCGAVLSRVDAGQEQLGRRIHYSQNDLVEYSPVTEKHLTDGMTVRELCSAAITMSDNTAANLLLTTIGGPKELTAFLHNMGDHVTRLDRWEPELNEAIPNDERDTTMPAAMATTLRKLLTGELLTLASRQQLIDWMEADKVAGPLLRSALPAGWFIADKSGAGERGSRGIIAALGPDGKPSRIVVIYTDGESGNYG

[18] = biological target: T3, Zinc finger protein mex-5 (Caenorhabditis elegans, UniProt Q9XUB2); test: MEX-5/TCR-2 RNA interaction inhibitors, dose response, biochemical, C. elegans, fluorescence polarization (AID 1960)
T3 sequence (Q9XUB2 whole entry): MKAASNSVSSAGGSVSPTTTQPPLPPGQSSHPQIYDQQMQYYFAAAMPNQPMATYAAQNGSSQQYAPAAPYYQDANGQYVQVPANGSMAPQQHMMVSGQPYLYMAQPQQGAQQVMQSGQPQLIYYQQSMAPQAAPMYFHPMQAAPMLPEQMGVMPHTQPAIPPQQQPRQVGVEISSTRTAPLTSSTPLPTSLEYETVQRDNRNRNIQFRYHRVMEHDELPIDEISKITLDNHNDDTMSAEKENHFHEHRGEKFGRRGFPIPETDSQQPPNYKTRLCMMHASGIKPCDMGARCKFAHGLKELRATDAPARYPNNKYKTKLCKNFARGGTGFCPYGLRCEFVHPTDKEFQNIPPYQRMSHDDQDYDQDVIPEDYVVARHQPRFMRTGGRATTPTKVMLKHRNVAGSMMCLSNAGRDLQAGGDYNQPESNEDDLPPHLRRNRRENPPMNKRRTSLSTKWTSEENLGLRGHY

cells [19] = test: cells
[20] = cytotoxicity toward NIH3T3 fibroblasts, dose response, counter-screen, cell-based, ATP luminescence, mouse fibroblasts (AID 2010); format: functional;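 further: cells exposed to compound for about 90 hours before reading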
[21] = biological target: Heat shock protein HSP 90-alpha (Homo sapiens, UniProt P07900); format: functional, organism-based
[22] = inhibitors of intracellular T. cruzi replication, confirmation, NIH3T3 host cells, beta-gal luminescence (AID 2044); format: functional, cell-based;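 further: intracellular parasites grown in NIH/3T3 mouse fibroblasts as host cells; luminescent beta-galactosidase reporter signal from transgenic T. cruzi replicating inside host cells; inhibitors lower the luminescence signal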
Large T antigen = Large T antigen (Simian virus 40, UniProt P03070); format: functional, Betapolyomavirus macacae;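 further: Confirmatory-stage PubChem screen for compounds that inhibit SV40 T antigen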
[23] = Luminescence Cell-Based Dose Confirmation HTS to Identify Activators of 5'UTR Stem-Loop Driven Alpha-Synuclein mRNA Translation in H4 Neuroglioblastoma Cells. [Related pubchem assays: 1829 (Project Summary), 1814 (Primary HTS)]; format: functional
Protein Tat = biological target: T4, Protein Tat (Human immunodeficiency virus type 1 group M subtype B (isolate HXB2)(HIV-1), UniProt P04608); format: functional;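 further: tat binding to TAR RNA read out by fluorescence polarization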
T4 sequence (P04608 whole entry): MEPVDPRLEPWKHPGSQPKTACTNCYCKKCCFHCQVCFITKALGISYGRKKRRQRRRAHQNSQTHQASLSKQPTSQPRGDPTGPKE

[24] = inhibitors of Vif binding to APOBEC3G peptide, primary screen, biochemical, TR-FRET, GST-Vif 1-94, biotin-A3G peptide, dose response retest (AID 1117319); format: functional;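 further: TR-FRET signal of purified GST-Vif binding a biotinylated A3G peptide; inhibitors lower the FRET signal by blocking Vif and A3G binding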
[25] = Luminescence Cell-Based Dose Response HTS to Identify Activators of Luciferase Translation or Activity in H4 […] Cells. [Related pubchem assays: 1829 (Project Summary), 1814 (Primary HTS)]; format: functional
[26] = biological target: T5, Voltage-gated N-type calcium channel alpha-1B subunit/Amyloid beta A4 precursor protein-binding family A member 1 (Homo sapiens, UniProt Q00975+Q02410); format: protein assay
T5 sequence (Q00975 whole entry): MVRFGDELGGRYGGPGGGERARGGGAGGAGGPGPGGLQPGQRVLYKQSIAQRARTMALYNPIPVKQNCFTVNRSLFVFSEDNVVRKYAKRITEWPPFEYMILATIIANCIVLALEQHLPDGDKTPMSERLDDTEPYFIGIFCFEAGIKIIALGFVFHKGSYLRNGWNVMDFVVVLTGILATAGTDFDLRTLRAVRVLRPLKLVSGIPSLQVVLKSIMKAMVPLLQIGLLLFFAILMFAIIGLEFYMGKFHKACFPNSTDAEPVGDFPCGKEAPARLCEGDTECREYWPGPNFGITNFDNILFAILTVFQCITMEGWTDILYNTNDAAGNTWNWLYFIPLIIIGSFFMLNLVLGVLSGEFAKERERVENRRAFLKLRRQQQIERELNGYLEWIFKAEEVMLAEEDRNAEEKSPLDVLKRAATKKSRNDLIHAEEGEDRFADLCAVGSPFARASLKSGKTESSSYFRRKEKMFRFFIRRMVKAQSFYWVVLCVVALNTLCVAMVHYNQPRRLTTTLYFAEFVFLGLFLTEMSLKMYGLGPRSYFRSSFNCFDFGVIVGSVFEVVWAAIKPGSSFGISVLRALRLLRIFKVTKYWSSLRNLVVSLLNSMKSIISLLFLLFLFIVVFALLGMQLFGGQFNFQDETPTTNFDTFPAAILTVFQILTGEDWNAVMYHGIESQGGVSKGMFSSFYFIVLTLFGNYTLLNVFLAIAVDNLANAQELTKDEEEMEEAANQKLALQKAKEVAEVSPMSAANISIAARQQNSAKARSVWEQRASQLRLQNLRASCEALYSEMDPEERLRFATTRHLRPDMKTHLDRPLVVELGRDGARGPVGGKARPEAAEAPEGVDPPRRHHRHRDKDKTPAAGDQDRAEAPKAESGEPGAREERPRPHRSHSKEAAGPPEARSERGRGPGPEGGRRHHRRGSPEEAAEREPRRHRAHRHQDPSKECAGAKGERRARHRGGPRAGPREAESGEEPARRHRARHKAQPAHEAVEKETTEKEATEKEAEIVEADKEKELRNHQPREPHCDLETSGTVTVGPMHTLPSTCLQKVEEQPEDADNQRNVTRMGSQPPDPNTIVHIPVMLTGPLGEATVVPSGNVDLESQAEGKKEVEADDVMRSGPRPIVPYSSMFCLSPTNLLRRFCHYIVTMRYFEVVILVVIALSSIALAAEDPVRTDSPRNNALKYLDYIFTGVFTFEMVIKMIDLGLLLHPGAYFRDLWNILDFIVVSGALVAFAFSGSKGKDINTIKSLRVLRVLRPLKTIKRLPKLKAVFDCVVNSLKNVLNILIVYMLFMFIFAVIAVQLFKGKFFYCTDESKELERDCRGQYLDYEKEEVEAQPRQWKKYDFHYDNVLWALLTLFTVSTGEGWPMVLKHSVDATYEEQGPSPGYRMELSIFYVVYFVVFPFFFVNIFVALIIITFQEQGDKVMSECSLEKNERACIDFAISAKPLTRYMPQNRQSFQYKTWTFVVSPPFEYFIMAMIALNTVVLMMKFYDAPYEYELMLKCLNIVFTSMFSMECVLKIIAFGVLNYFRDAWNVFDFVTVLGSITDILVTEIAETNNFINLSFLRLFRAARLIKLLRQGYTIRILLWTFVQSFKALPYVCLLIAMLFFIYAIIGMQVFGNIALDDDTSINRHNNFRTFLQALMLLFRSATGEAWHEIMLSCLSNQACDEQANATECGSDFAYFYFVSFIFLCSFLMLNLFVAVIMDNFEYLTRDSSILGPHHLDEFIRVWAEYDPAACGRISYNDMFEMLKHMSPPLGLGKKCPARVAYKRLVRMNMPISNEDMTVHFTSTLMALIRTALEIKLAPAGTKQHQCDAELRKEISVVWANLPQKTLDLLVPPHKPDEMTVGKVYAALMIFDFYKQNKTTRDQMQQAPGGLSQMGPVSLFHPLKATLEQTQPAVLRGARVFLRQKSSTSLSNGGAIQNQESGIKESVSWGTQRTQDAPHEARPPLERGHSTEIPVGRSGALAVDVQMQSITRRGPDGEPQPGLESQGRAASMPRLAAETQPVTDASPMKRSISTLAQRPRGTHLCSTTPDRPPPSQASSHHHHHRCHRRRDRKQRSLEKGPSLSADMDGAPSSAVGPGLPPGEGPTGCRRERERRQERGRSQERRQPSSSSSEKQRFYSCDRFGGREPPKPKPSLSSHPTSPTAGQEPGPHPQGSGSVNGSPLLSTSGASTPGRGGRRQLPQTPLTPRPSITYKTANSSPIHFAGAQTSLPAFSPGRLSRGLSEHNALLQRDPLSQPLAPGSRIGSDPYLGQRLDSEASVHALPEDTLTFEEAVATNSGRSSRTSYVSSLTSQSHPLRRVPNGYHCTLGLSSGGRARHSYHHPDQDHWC
T5 sequence (Q02410 whole entry): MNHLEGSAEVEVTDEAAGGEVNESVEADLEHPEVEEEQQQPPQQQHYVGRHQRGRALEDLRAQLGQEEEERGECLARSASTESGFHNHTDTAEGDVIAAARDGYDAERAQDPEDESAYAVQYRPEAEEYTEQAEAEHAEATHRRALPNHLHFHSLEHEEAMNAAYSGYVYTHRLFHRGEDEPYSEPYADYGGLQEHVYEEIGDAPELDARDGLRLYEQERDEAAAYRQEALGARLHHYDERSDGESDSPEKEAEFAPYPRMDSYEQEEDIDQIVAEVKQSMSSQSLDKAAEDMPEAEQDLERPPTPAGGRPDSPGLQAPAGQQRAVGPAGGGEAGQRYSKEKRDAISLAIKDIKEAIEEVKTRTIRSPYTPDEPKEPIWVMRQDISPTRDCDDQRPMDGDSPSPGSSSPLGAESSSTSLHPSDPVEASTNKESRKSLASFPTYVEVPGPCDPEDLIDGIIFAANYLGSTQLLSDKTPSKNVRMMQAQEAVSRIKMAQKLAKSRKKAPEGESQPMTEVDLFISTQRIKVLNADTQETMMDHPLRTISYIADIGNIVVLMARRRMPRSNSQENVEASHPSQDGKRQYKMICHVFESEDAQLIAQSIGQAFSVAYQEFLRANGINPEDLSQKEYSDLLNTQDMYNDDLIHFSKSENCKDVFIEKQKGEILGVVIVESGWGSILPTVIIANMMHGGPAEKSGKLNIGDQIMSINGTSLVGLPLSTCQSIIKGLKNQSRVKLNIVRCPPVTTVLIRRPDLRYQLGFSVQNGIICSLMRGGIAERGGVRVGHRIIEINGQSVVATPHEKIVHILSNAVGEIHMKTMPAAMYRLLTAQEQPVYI

[27] = biological target: T5, Voltage-gated N-type calcium channel alpha-1B subunit/Amyloid beta A4 precursor protein-binding family A member 1; format: protein assay; remark: listed apart in the source
H4 = test: Luminescence Cell-Based Dose Response HTS to Identify Activators of 5'UTR Stem-Loop Driven Prion Protein mRNA Translation in H4 Neuroglioblastoma Cells. [Related pubchem assays: 1829 (Project Summary), 1814 (Primary HTS)]; format: functional; details: Homo sapiens
[28] = biological target: DNA dC->dU-editing enzyme APOBEC-3G (Homo sapiens, UniProt Q9HC16); test: Dose Response confirmation of small molecule APOBEC3G DNA Deaminase Inhibitors via a fluorescence-based single-stranded DNA deaminase assay. [Related pubchem assays (depositor defined):AID493012, AID493028]; format: functional
[29] = biological target: DNA dC->dU-editing enzyme APOBEC-3A (Homo sapiens, UniProt P31941); test: APOBEC3A DNA deaminase inhibitors, dose response, biochemical (AID 504722); format: functional
Sequence of DNA dC->dU-editing enzyme APOBEC-3A (P31941 whole entry): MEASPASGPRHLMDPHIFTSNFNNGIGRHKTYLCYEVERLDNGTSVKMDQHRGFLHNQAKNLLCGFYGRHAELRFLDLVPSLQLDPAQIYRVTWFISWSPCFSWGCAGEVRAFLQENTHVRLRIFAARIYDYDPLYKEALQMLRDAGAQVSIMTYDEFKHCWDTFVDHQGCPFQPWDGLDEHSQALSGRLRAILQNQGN

[30] = biological target: T6, DNA repair protein RAD52 homolog (Homo sapiens, UniProt P43351); format: functional, biochemical
T6 sequence (P43351 whole entry): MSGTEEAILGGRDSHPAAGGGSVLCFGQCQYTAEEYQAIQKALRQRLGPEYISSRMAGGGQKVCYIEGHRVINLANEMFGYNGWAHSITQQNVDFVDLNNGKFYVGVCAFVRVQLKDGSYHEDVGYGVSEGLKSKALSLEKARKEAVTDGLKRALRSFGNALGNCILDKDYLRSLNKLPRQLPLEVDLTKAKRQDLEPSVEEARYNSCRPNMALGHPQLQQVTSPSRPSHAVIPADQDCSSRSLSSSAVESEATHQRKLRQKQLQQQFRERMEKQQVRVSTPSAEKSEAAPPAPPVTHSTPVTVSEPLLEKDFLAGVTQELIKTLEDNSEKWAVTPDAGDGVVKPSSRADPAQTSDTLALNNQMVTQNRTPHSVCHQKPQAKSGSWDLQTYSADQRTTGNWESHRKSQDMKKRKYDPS

[31] = biological target: Melanin-concentrating hormone receptor 1 (Homo sapiens, UniProt Q99705); test: Late-stage fluorescence-based counterscreen for antagonists of the G-protein coupled receptor 7 (GPR7): cell-based dose response assay to identify antagonists of the melanin-concentrating hormone receptor 1 (MCHR1). [Related pubchem assays (depositor defined):AID1861, AID1880, AID1952, AID2148, AID2251, AID2257, AID485339]; format: functional;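 further: stimulated with 30 nM MCH peptide agonist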
Sequence of Melanin-concentrating hormone receptor 1 (Q99705 whole entry): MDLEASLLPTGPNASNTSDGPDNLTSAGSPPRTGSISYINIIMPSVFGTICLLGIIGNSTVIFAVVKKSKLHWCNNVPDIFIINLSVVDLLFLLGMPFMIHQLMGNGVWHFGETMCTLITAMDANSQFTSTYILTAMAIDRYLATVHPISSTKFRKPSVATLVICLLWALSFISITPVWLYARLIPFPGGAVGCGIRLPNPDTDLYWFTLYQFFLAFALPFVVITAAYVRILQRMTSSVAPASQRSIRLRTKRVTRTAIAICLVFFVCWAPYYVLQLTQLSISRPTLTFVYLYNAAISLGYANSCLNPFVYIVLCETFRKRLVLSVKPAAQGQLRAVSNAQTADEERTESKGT

CCOC(=O)Cc1ccc(NC(=O)c2ccc(C(C)(C)C)cc2)cc1
EC50 [1]: 49.5 µM (active)
EC50 [2]: < 0.1 µM (active)
EC50 [3]: 0.266 µM (active)
EC50 [4]: 0.483 µM (active)
EC50 (BJ [5]): 60.1 µM (active)
EC50 [6]: < 0.1 µM (active)
EC50 (BJ [7]): > 150 µM (inconclusive)
EC50 (BJ [8]): > 150 µM (not active)
EC50 (cells [9]): 0.508 µM (active)
IC50 [10]: 42.8 µM (inactive)

CCCCOC(=O)c1ccc(NC(=O)C(=O)NCc2ccccn2)cc1
IC50 [11]: > 100 µM (active)

CN(C)c1ccc(NC(=O)CN2C(=O)CN=C(c3ccccc3)c3cc(Cl)ccc32)cc1
IC50 (Bcl-2-like protein 10): > 100 µM (inactive)
IC50 (Nonstructural protein 1): 31 µM (active)
IC50 [12]: 0.856 µM (not active)

CN(C)NC(=O)c1ccc([N+](=O)[O-])s1
EC50 (Troponin, cardiac muscle): > 71.4 µM (inactive)

CC1CCc2nc(NC(=O)C3CCCO3)sc2C1 (stereo unspecified)
EC50 [13]: < 0.2 µM (active)
EC50 (HT-1080): > 50 µM (not active)

CN1C(=O)/C(=C\c2ccc(N(C)C)cc2)OC1=S
EC50 [14]: > 300 µM (not active)
IC50 [15]: 1.12 µM (active)
IC50 (Beta-lactamase [16]): > 59.6 µM (inactive)
IC50 (Beta-lactamase [17]): > 59.6 µM (inactive)
EC50 [18]: > 300 µM (inconclusive)

Cc1c(Cc2ccccc2)c(NCCN(C)C)n2c(nc3ccccc32)c1C#N
EC50 (cells [19]): 0.015 µM (active)
EC50 [20]: 34.1 µM (active)
IC50 [12]: 3.29 µM (active)
AC50 [21]: 2.37 µM (active)
EC50 [22]: < 0.1 µM (active)

Cc1ccc(N2CSC3=C(C#N)C(c4cccs4)CC(=O)N3C2)cc1 (stereo unspecified)
IC50 (Large T antigen): > 100 µM (active)
EC50 [23]: 13.2 µM (active)
IC50 (Protein Tat): > 100 µM (active)
IC50 [24]: > 100 µM (active)
EC50 [25]: 17 µM (active)
IC50 [26]: 3.74 µM (active)
IC50 [27]: > 50 µM (inactive)
EC50 (H4): 7.71 µM (active)
IC50 [28]: 5.19 µM (active)
IC50 [29]: > 100 µM (inactive)

CN1C(=O)C(=CNc2ccc3c(c2)CCC3)C(=O)N(C)C1=O
IC50 [11]: > 100 µM (active)

CC(C(=O)c1ccc(Br)cc1)[n+]1cccc2ccccc21 (stereo unspecified)
EC50 (Troponin, cardiac muscle): 15.2 µM (inactive)

Cc1ccc2nc(N(CCCN(C)C)C(=O)CN3C(=O)c4ccccc4C3=O)sc2c1
EC50 (cells [19]): 0.055 µM (active)
EC50 [20]: > 60 µM (not active)
AC50 [30]: 21.7 µM (active)
EC50 [22]: < 0.1 µM (active)

CCC(C)c1ccc(-n2ncc(Cl)c(Oc3ccc(OC)cc3)c2=O)cc1 (stereo unspecified)
IC50 [31]: 2.2 µM (active)

Cc1ccc(-n2ncc(Cl)c(Oc3ccc(CO)cc3)c2=O)cc1
IC50 [31]: > 20 µM (inactive)

CC1(C)CC(=O)C(/C=N/c2ccc3c(c2)OCO3)=C(O)C1
IC50 [11]: > 100 µM (active)
